Laboratory results: patent US9034863B2, “Compositions and methods for inhibiting entry of a hepatic virus” (The Board of Trustees of the University of Illinois, priority 2008, dated 2015)

What was measured:
Huh7 cells = test: Cytotoxicity assay (adenylate kinase release, TOXILIGHT); format: cell-based, human
Description: The […] Plus Cell Proliferation assay kit (Lonza, Walkersville, Md.), which incorporates bioluminescent detection of cellular ATP as a measure of cell viability and proliferation, was used according to the manufacturer's instructions. Briefly, mock-treated and drug-treated cultures were lysed in Cell Lysis reagent for […]. One hundred μl of culture medium was transferred to white 96-well plates (BD Biosciences) containing ATP detection reagent and luminescence, expressed as relative light units (RLU), was measured (Fluostar OPTIMA). To assess drug-induced cellular toxicity, a bioluminescence-based assay (The TOXILIGHT BioAssay Kit, Lonza) that measures adenylate kinase (AK) released from damaged cells was used as per the manufacturer's instructions. […] One hundred μl of AK detection reagent was then added to each well, and luminescence (RLU) was measured (Fluostar OPTIMA).
To ensure that the inhibition observed was not due to ezetimibe-induced changes in cell proliferation or cytotoxicity, cellular ATP was measured as a read-out of Huh7 cell viability and proliferation and cellular toxicity by adenylate kinase release following treatment with increasing doses of ezetimibe. […] Furthermore, to test the specificity of the observed HCV inhibition, the effect of ezetimibe on entry of another flavivirus, Dengue virus (DNV), was assessed.

HCVcc JFH-1 = test: HCV binding versus internalization, cell-associated HCV RNA (FIG. 1); format: cell-based, Hepatitis C virus (HCV)
Experimental: Monolayers of human hepatoma cell line Huh7 were inoculated with HCVcc JFH-1 (cell culture produced HCV JFH-1, which is a specific HCV clone isolated from a Japanese Fulminant Hepatitis patient) at an MOI of 0.1 FFU/cell for 6 hours in the presence or absence of increasing concentrations of ezetimibe. Cultures were washed extensively and cell associated RNA was collected 6 and 30 hours post-infection (p.i.) to determine the amount of bound and internalized virus, respectively. […] Results are graphed as means±s.e.m. for triplicate samples. The data presented are representative of three independent experiments. Assay background (i.e., HCV RNA level detected in uninfected samples) is equal to ˜0.5−1.0×10^2 copies/μg total cellular RNA. Significant reduction in HCV RNA levels relative to mock-treated cultures is denoted by a single asterisk (p<0.05, one-way ANOVA and Tukey's post hoc t test).
To decipher whether ezetimibe inhibits HCV cellular binding or subsequent internalization, cell-associated HCV RNA and protein in mock- and ezetimibe-treated HCVcc-infected cultures was examined.

HCVcc^G451R = test: Infection of Huh7 cells with SR-B1-independent HCVcc G451R, intracellular HCV RNA; format: cell-based, Hepatitis C virus (HCV)
Experimental: Studies have shown that a G451R mutation in the viral envelope glycoprotein (E2) results in HCV virions of […] density and faster infection kinetics (thong, et al. (2006) J. Virol. 80:11082-11093). […] Thus, if ezetimibe was blocking HCV entry via an SR-B1 mediated mechanism, it would be expected that the mutant G451R virus would be less susceptible to the effects of ezetimibe. As a result, experiments were performed to assess the antiviral efficacy of ezetimibe against the SR-B1-independent HCVcc^G451R virus. Monolayers of Huh7 cells were inoculated with either wild-type HCVcc^JFH-1 or HCVcc^G451R at an MOI of 0.01 FFU/cell for 12 hours. Ezetimibe treatment at concentrations of 15 or 30 μM was initiated (and then continued) either 6 hours prior to infection, during the 12 hour incubation of the virus on the cells, or immediately following the 12 hour viral inoculation period. Ezetimibe at a concentration of 30 μM inhibited HCVcc^JFH-1 infection approximately 10-fold at 48 hours post-infection.

HCV = test: Prevention of HCV infection in mice with chimeric human livers; format: in vivo; conditions: 10 mg/kg/day oral gavage from ~7 days prior to infection
Description: Alternatively, severe combined immunodeficient (SCID)/urokinase plasminogen activator (uPA) mice can be used. Mice are transplanted with primary human hepatocytes according to conventional methods (Azuma, et al. (2007) Nat. Biotechnol. 25:903-910; Bissig, et al. (2007) Proc. Natl. Acad. Sci. USA 104:20507-20511) and monitored for two months post-transplantation to assess repopulation efficiency by measuring human albumin serum levels. Using these models, mice can be assessed for the prevention of HCV infection or the inhibition of an already established infection.
Mice are injected with HCV positive human serum (of any HCV genotype) and HCV RNA serum levels are quantified daily and/or weekly to assess the efficacy with which the treatments reduces the amplification of HCV RNA levels. Evidence that ezetimibe reduces the amplification HCV levels in vivo, as compared to untreated animals, provides in vivo evidence that ezetimibe is an effective treatment for HCV in patients.

HCVcc = test: Secretion of infectious HCVcc, extracellular infectivity titration; format: cell-based, Hepatitis C virus (HCV); conditions: 30 μM, 24-96 hours post-treatment
Experimental: Cell supernatants were serially diluted 10-fold in cDMEM and 100 μl was used to infect, in triplicate, 4×10^3 naïve Huh7 cells per well in 96-well plates (BD Biosciences). The inoculum was incubated with cells for 24 hours at 37° C. and then overlayed with 150 μl complete DMEM containing 0.4% methylcellulose (w/v) (Fluka BioChemika, Switzerland) to give a final concentration of 0.25% methylcellulose. Seventy-two hours post-infection, medium was removed, cells were fixed with 4% paraformaldehyde (Sigma) and immunohistochemical staining for HCV E2 was performed. […] The HCV E2 glycoprotein was detected by incubation at room temperature with 1×PBS containing 0.5% (v/v) TRITON X-100 and 3% (w/v) BSA and a 1:500 dilution of the human monoclonal anti-HCV E2 antibody C1. Bound C1 was subsequently detected by a 1 hour incubation with a 1:1000 dilution of an HRP-conjugated anti-human antibody (Pierce, Rockford, Ill.) followed by a 30 minute incubation with an AEC detection substrate (BD Biosciences). […] Viral infectivity titers are expressed as FFU per milliliter of supernatant (FFU/ml), determined by the average number of E2-positive foci detected in triplicate samples at the highest HCV-positive dilution.
Huh7 cultures were inoculated with HCVcc at an MOI of 0.01 FFU cell-1. […] Infectivity titers are expressed as mean FFU/ml±SD for triplicate samples.

## O=C1[C@H](CC[C@H](O)c2ccc(F)cc2)[C@@H](c2ccc(O)cc2)N1c1ccc(F)cc1 [ezetimibe, 1-(4-fluorophenyl)-(3R)-[3-(4-fluorophenyl)-(3S)-hydroxypropyl]-(45)-(4-hydroxyphenyl)-2-azetidinone]
Huh7 cells; increasing doses
  cellular toxicity (adenylate kinase release): did not inhibit cell proliferation or induce cellular toxicity
Huh7 cells; treatment of Huh7 cells for 12 hours, concentrations tested
  cytotoxicity: not cytotoxic
HCVcc JFH-1; 6 hours p.i.
  virion binding (cell-associated HCV RNA): not binding
HCVcc JFH-1; later time points (30 hours p.i.)
  HCV entry/internalization (HCV RNA expansion, de novo NS5A expression): inhibits HCV internalization
HCVcc^G451R
  infection blocked: ~100%
HCV
  establishment of HCV infection (serum HCV RNA): prevents the establishment of HCV infection
HCVcc
  secretion of infectious HCVcc (infectivity titers): did not inhibit secretion of infectious HCVcc
